“Also recorded” adds a separate entry of the source. Like-named read-outs stand apart in the source and are kept apart here. Blank lines part the entries; values can stand above or below the compound they belong to.
How the values were obtained:
[1] = target: PRMT5:WDR77 hetero-octameric complex (Homo sapiens, UniProt O14744); assay: Fluorescence polarization; type: binding; conditions: for inhibition of PRMT5-PBM peptide binding (in words): FP assay
[2] = target: PRMT5 (Homo sapiens, UniProt O14744); assay: Target engagement in cells; type: cell-based; conditions: Expi293 cells, 6 hours, maximum labeling
PRMT5, sequence (O14744 whole entry): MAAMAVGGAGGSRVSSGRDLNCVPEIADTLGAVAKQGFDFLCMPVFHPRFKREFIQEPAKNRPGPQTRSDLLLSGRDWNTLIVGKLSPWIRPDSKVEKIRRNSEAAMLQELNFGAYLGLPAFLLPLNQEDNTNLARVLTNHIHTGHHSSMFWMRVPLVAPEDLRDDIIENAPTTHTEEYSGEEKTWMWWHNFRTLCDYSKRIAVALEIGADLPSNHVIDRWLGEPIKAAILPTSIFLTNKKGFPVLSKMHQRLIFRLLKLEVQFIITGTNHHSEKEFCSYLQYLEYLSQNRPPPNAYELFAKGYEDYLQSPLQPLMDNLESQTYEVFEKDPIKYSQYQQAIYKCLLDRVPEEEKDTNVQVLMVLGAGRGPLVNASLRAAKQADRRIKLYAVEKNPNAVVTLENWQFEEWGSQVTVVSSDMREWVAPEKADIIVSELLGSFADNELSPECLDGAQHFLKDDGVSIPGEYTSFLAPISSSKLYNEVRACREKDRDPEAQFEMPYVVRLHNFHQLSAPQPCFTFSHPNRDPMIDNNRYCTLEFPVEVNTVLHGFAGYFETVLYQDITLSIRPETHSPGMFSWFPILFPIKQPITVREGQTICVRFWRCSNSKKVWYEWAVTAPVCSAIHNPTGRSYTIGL
PRMT5, sequence (Q9BQA1 whole entry partner): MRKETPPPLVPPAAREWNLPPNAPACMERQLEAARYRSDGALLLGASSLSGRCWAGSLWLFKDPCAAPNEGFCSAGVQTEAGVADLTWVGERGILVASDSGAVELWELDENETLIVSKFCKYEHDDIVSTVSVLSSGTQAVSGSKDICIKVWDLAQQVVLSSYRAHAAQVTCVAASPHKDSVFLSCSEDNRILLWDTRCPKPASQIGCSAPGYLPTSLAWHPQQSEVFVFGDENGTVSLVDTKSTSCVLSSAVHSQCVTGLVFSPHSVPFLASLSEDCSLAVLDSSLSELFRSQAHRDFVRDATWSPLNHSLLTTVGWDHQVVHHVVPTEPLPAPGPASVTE

[3] = system: symmetric arginine dimethylation levels in MTAP−/− HCT116 cells; assay: Western blot of total symmetric arginine dimethylation; type: cell-based; conditions: 25 μM
[4] = target: PRMT5:WDR77 complex (Homo sapiens, UniProt O14744); assay: SPR competition assay, full-length pICln titrated on pre-incubated PRMT5:WDR77; type: binding; conditions: PRMT5 pre-incubated with 2 μM compound overnight at 4C
PRMT5:WDR77 complex, sequence (O14744 whole entry): as the sequence (O14744 whole entry) above
PRMT5:WDR77 complex, sequence (Q9BQA1 whole entry partner): as the sequence (Q9BQA1 whole entry partner) above

[5] = target: PRMT5 C278A mutant (Homo sapiens, UniProt O14744, C278A); assay: FP competition assay with C278A mutant PRMT5
PRMT5 C278A mutant, sequence (O14744 whole entry C278A): as the sequence (O14744 whole entry) above, with C278A counted along it
PRMT5 C278A mutant, sequence (Q9BQA1 whole entry partner): as the sequence (Q9BQA1 whole entry partner) above

[6] = target: PRMT5-RIOK1 complex (Homo sapiens, UniProt O14744); assay: PRMT5-RIOK1 NanoBiT assay in permeabilized cells; type: cell-based
PRMT5-RIOK1 complex, sequence (O14744 whole entry): as the sequence (O14744 whole entry) above
PRMT5-RIOK1 complex, sequence (Q9BQA1 whole entry partner): as the sequence (Q9BQA1 whole entry partner) above

PRMT5:WDR77 hetero-octameric complex, sequence (O14744 whole entry): as the sequence (O14744 whole entry) above
PRMT5:WDR77 hetero-octameric complex, sequence (Q9BQA1 whole entry partner): as the sequence (Q9BQA1 whole entry partner) above

Compound: Cc1ccc(NC(=O)[C@H](C)n2ncc(Cl)cc2=O)cc1S(=O)(=O)NCCc1ccccn1 [Compound 27, (2S)-2-(4-chloro-6-oxo-pyridazin-1-yl)-N-[4-methyl-3-[2-(2-pyridyl)ethylsulfamoyl]phenyl]propanamide]
total PRMT5 protein labeled [2]: ~ 40%
symmetric arginine dimethylation levels by WB (in words) [3]: reduction in symmetric arginine dimethylation levels; also recorded: reduces SDMA

Compound: Cc1ccc(NC(=O)Cn2ncc(Cl)c(Cl)c2=O)cc1S(=O)(=O)NCCc1ccccn1 [Compound 6, 2-(4,5-Dichloro-6-oxopyridazin-1(6H)-yl)-N-(4-methyl-3-(N-(2-(pyridin-2-yl)ethyl)sulfamoyl)phenyl)acetamide]
IC50 [1]: 0.6 µM
pICln binding to compound-treated PRMT5 (in words) [4]: greatly reduced binding response
IC50 [5]: > 100 µM

Compound: CSC[C@H]1O[C@@H](n2cnc3c(N)ncnc32)[C@H](O)[C@@H]1O [MTA, 5′-S-Methyl-5′-thioadenosine]
IC50 [1]: > 100 µM

Compound: Cc1ccc(N(C)C(=O)[C@H](C)n2ncc(Cl)cc2=O)cc1S(=O)(=O)NCCc1ccccn1 [Compound 29, (2S)-2-(4-chloro-6-oxo-pyridazin-1-yl)-N-methyl-N-[4-methyl-3-[2-(2-pyridyl)ethylsulfamoyl]phenyl]propanamide]
disruption of PRMT5-RIOK1 complex, permeabilized cells (in words) [6]: inactive

Compound: CN(C)S(=O)(=O)N1CCCC(NC(=O)Cn2ncc(Cl)c(Cl)c2=O)C1 (stereo not drawn) [Compound 18, 2-(4,5-Dichloro-6-oxopyridazin-1(6H)-yl)-N-(1-(N,N-dimethylsulfamoyl)piperidin-3-yl)acetamide]
inhibition of PRMT5-PBM peptide binding (in words) [1]: no ability to displace the PBM peptide

Compound: competitor PBM peptide: pICln 13-mer control peptide displacing the fluorescently-labeled PBM probe (TVAGQFEDADVDH; Terminal caps are) [reference compound]
IC50 ([1]; read-out: FP IC50 against WT PRMT5, Fig. 3b, WT vs C278A comparison): 2 µM
IC50 ([5]; read-out: FP IC50 against C278A mutant, Fig. 3b, C278A PRMT5): 1.4 µM

Results, then the compound that gave them:

inhibition of PRMT5-PBM peptide binding (in words) [1]: failed to inhibit this binding
Compound: Nc1nc2cc(CC[C@H]3C[C@@H](n4ccc5c(N)ncnc54)[C@H](O)[C@@H]3O)ccc2cc1Br [JNJ-64619178]

inhibition of PRMT5-PBM peptide binding (in words) [1]: failed to inhibit this binding
Compound: O=C(NC[C@H](O)CN1CCc2ccccc2C1)c1cc(NC2COC2)ncn1 [EPZ015666]

— paper PMC9036822 (Journal of medicinal chemistry, 2021)
